Activity calls are given as the source filed them. No cut-off for these calls is given here.
Legend:
Type in all cases: functional
[1] = (§1) Inhibition of protein synthesis in mouse Krebs cells overexpressing (CAG)33/FF/HCV/Ren mRNA reporter transcript assessed as firefly luciferase production at 100 uM relative to control
[2] = (§2) Inhibition of protein synthesis in mouse Krebs cells overexpressing (CAG)33/FF/HCV/Ren mRNA reporter transcript assessed as renilla luciferase production at 100 uM relative to control
[3] = Inhibition of translation in mouse Krebs cells overexpressing (CAG)33/FF/HCV/Ren mRNA reporter transcript assessed as luciferase production at 100 uM relative to control
Krebs [4] = assay: as §1
Krebs [5] = assay: as §2
Oryctolagus cuniculus = species: Oryctolagus cuniculus; assay: Inhibition of translation initiation in rabbit reticulocyte lysates with [32P]CAT mRNA assessed as 80S initiation complex formation at 50 uM by ribosome binding assay in presence of cycloheximide
Escherichia coli = assay: Inhibition of bacterial protein synthesis in Escherichia coli S30 overexpressing pBEST/luc and [35S]met assessed as [35S]met incorporation

Row | Structure (SMILES) | fold change (FC) [1] | fold change (FC) [2] | fold change (FC) [3] | Activity (Krebs [4]) | Activity (Krebs [5]) | Activity (Oryctolagus cuniculus) | Activity (Escherichia coli)
1 | C[C@@H]1O[C@@H](OC[C@H]2O[C@@H](Oc3c(-c4ccc(O)c(O)c4)oc4cc(O)cc(O)c4c3=O)[C@H](O)[C@@H](O)[C@H]2OC(=O)/C=C/c2ccc(O)cc2)[C@H](O)[C@H](O)[C@H]1O | 2 | 2 | – | – | – | – | –
2 | C[C@@H]1O[C@@H](OC[C@H]2O[C@@H](Oc3c(-c4ccc(O)cc4)oc4cc(O)cc(O)c4c3=O)[C@H](O)[C@@H](O)[C@H]2OC(=O)/C=C/c2ccccc2)[C@H](O)[C@H](O)[C@H]1O | 2 | 2 | – | – | – | – | –
3 | C[C@@H]1O[C@@H](OC[C@H]2O[C@@H](Oc3c(-c4ccc(O)cc4)oc4cc(O)cc(O)c4c3=O)[C@H](O[C@@H]3O[C@@H](C)[C@H](OC(=O)/C=C/c4ccc(O)cc4)[C@@H](O)[C@H]3O)[C@@H](O)[C@H]2OC(=O)/C=C/c2ccc(O)cc2)[C@H](O)[C@H](O)[C@H]1O | – | – | 5 | Active | Active | – | –
4 | C[C@@H]1O[C@@H](OC[C@H]2O[C@@H](Oc3c(-c4ccc(O)c(O)c4)oc4cc(O)cc(O)c4c3=O)[C@H](O)[C@@H](OC(=O)/C=C/c3ccc(O)cc3)[C@H]2O)[C@H](O)[C@H](O)[C@H]1O | 2 | 2 | – | – | – | – | –
5 | C[C@@H]1O[C@@H](OC[C@H]2O[C@@H](Oc3c(-c4ccc(O)c(O)c4)oc4cc(O)cc(O)c4c3=O)[C@H](O[C@@H]3O[C@@H](C)[C@H](OC(=O)/C=C/c4ccc(O)cc4)[C@@H](O)[C@H]3O)[C@@H](O)[C@H]2OC(=O)/C=C/c2ccc(O)cc2)[C@H](O)[C@H](O)[C@H]1O | – | – | 5 | Active | Active | – | –
6 | C[C@@H]1O[C@@H](OC[C@H]2O[C@@H](Oc3c(-c4ccc(O)c(O)c4)oc4cc(O)cc(O)c4c3=O)[C@H](O[C@@H]3O[C@@H](C)[C@H](OC(=O)/C=C/c4ccc(O)c(O)c4)[C@@H](O)[C@H]3O)[C@@H](OC(=O)/C=C/c3ccc(O)cc3)[C@H]2O)[C@H](O)[C@H](O)[C@H]1O | – | – | 10 | Active | Active | inactive | inactive
7 | C[C@@H]1O[C@@H](OC[C@H]2O[C@@H](Oc3c(-c4ccc(O)c(O)c4)oc4cc(O)cc(O)c4c3=O)[C@H](O[C@@H]3O[C@@H](C)[C@H](OC(=O)/C=C/c4ccc(O)cc4)[C@@H](O)[C@H]3O)[C@@H](OC(=O)/C=C/c3ccc(O)cc3)[C@H]2O)[C@H](O)[C@H](O)[C@H]1O | – | – | 10 | Active | Active | – | –

Source: ChEMBL document CHEMBL1146505, “Flavonoid glycosides from Adina racemosa and their inhibitory activities on eukaryotic protein synthesis” (2004)
